{"source": "patent US12570605B2", "about": "“Indole compounds, and preparation methods, and uses thereof” (Shenzhen 01 Life Science and Technology Co., Ltd., priority 2021, dated 2026)", "key": {"[1]": {"test_system": "mouse model with ear AD-like symptoms induced by calcipotriol (MC903)", "test": "Mouse model with ear AD-like symptoms induced by calcipotriol (MC903), first batch of experiments (Embodiment 32)", "type": "in vivo, BALB/c mouse", "conditions": "MC903 6.9 nmol/mouse every day", "description": "(§1) A mouse model with ear AD-like symptoms induced by calcipotriol (MC903) was used to investigate these compounds in terms of the treatment activity for AD.\n(§2) Referring to the Patent with a publication number of CN 110368386 A, a mouse model induced by MC903 (Calcipotriene) was prepared, wherein both ears of the BALB/c mouse model were applied with MC903, MC903+indole-3-aldehyde (IAId), or MC903+the compound prepared from the embodiments for 11 consecutive days, respectively, and total serum IgE levels, ear thicknesses, and weight loss in relative to the weight at the beginning of the experiment were tested at the end of the experiment.\n(§3) The data shown in the results were average values ±SD of five independently repeated trials. Significance analysis was performed using Mann-Whitney test on the differences of corresponding parameters of the mice with the treatment group (MC903+ethanol (EtOH)), which was only administrated with MC903, wherein * indicated P<0.05, ** indicated P<0.01; *** indicated P<0.001.\nIn this batch of experiments, the dosage of MC903, a drug for constructing the models, was 6.9 nmol/mouse every day, and the experimental results of Compounds 1, 2, 3, 6, 7, 19, 20, 28, 29, 30, 34, 37, 38, and 39 in this batch were shown in FIGS. 11 to 13.\n(§4) EtOH group was a Blank control group, which was only administrated with ethanol. MC903+ EtOH group was a model control group, which was administrated with Calcipotriene and ethanol. The remaining groups were the groups which were administered with MC903 to construct the model, and then administrated with different drugs. Indole-3-aldehyde (IAId) group was the group administered with IAId, indole-3-methanol (I3C) group was the group administered with I3C. The other compound groups were the groups administered with corresponding compounds."}, "[2]": {"test_system": "mouse model with ear AD-like symptoms induced by calcipotriol (MC903)", "test": "Mouse model with ear AD-like symptoms induced by calcipotriol (MC903), second batch of experiments (Embodiment 32)", "type": "in vivo, BALB/c mouse", "conditions": "MC903 5 nmol/mouse every day, 9 days", "description": "as §1, §2, §3\nTherefore, in the second batch of drug tests, the dosage of MC903 was decreased to 5 nmol/mouse every day, and the test period was reduced to 9 days.\nas §4, with “then administered” for “then administrated”, “with IAId. Indole-3-methanol” for “with IAId, indole-3-methanol”"}, "[3]": {"test_system": "mouse model with ear AD-like symptoms induced by calcipotriol (MC903)", "test": "Optimum effective concentration in treatment of AD-like symptoms, MC903 mouse model (Embodiment 33)", "type": "in vivo", "conditions": "dosages per Table 11; vs group only administrated with MC903", "description": "The above screened compounds having therapeutic effect on AD-like symptoms were selected to further determine the optimum effective concentration.\nReferring to the animal model method in the Embodiment 32, dosages of drugs for each group were determined according to the table below, and the optimal effective concentration in treatment of AD-like symptoms was explored by comparing the differences in ear thicknesses, the total serum IgE levels and the weight loss of the mice with those of the treatment group only administrated with MC903."}, "[4]": {"conditions": "vs model control group (MC903+EtOH), Mann-Whitney test"}}, "note": "Entries after “also recorded” stand apart in the source; their conditions may differ."}
{"smiles": "CCCCCCCC(=O)OCn1cc(CO)c2ccccc21", "note": "[Compound 38, (3-(hydroxymethyl)-1H-indol-1-yl)methyl octanoate]", "values": [{"measurement": "therapeutic effects on AD-like symptoms in the ear of mice (combined with ear inflammation and tissue HE staining)", "setting": "[1]; 11 days", "result": "significant therapeutic effects"}, {"measurement": "reducing the total serum IgE levels of the mice", "setting": "[1]; both ears, 11 consecutive days, vs model control group (MC903+EtOH), Mann-Whitney test", "result": "statistically significant difference; also recorded: excellent effects"}, {"measurement": "therapeutic effects on AD-like symptoms in the ear of mice (ear inflammation, tissue HE staining, parameters of multiple experiments)", "setting": "[2]; screening over both batches", "result": "therapeutic effects"}, {"measurement": "reducing ear thicknesses of the mice", "setting": "[2]; [4]", "result": "statistically significant difference"}, {"measurement": "reducing the total serum IgE levels of the mice", "setting": "[2]; [4]", "result": "statistically significant difference"}, {"measurement": "inhibitory effect on systematic inflammation (lower total serum IgE levels and improvement on AD-like symptoms in the mice ear)", "setting": "[3]", "result": "good inhibitory effect; also recorded: excellent inhibitory effect"}]}
